{"source": "patent US10681909B2", "about": "“Herbicidal triazoles” (FMC Corporation, priority 2014, dated 2020)", "key": {"blackgrass": {"test_system": "blackgrass", "assay": "Test A postemergence", "format": "in vivo, Alopecurus myosuroides", "conditions": "0 to 100 scale (0 no effect, 100 complete control), approx. 10 d", "description": "Seeds of plant species selected from barnyardgrass (Echinochloa crus-galli), crabgrass, large (large crabgrass, Digitaria sanguinalis), kochia (Kochia scoparia), ragweed (common ragweed, Ambrosia elatior), foxtail, giant (giant foxtail, Setaria faberii), morningglory (Ipomoea spp.), pigweed (Amaranthus retroflexus), velvetleaf (Abutilon theophrasti), ryegrass, Italian (Italian ryegrass, Lolium multiflorum), wheat (Triticum aestivum), and corn (Zea mays) were planted into a blend of loam soil and sand and treated preemergence with a directed soil spray using test chemicals formulated in a non-phytotoxic solvent mixture which included a surfactant.\nAt the same time, plants selected from these crop and weed species and also blackgrass (Alopecurus myosuroides), and galium (catchweed bedstraw, Galium aparine), were planted in pots containing the same blend of loam soil and sand and treated with postemergence applications of test chemicals formulated in the same manner. Plants ranged in height from 2 to 10 cm and were in the one- to two-leaf stage for the postemergence treatment. Treated plants and untreated controls were maintained in a greenhouse for approximately 10 d, after which time all treated plants were compared to untreated controls and visually evaluated for injury. Plant response ratings, summarized in Table A, are based on a 0 to 100 scale where 0 is no effect and 100 is complete control. A dash (-) response means no test result."}, "oat, wild": {"test_system": "oat, wild", "assay": "Test D preemergence", "format": "in vivo, Avena fatua", "conditions": "scale 0 to 100", "description": "(§1) Seeds of plant species selected from bluegrass (annual bluegrass, Poa annua), blackgrass (Alopecurus myosuroides), canarygrass (Phalaris minor), chickweed (common chickweed, Stellaria media), galium (catchweed bedstraw, Galium aparine), bromegrass, down (downy bromegrass, Bromus tectorum), Russian thistle (Salsola kali), field poppy (Papaver rhoeas), field violet (Viola arvensis), foxtail, green (green foxtail, Setaria viridis), deadnettle (henbit deadnettle, Lamium amplexicaule), ryegrass, Ital. (Italian ryegrass, Lolium multiflorum), kochia (Kochia scoparia), lambsquarters (Chenopodium album), oilseed rape (Brassica napus), pigweed (Amaranthus retroflexus), chamomile (scentless chamomile, Matricaria inodora), speedwell (bird's-eye speedwell, Veronica persica), barley, spring (spring barley, Hordeum vulgare), wheat, spring (spring wheat, Triticum aestivum), buckwheat, wild (wild buckwheat, Polygonum convolvulus), wild mustard (Sinapis arvensis), oat, wild (wild oat, Avena fatua), radish, wild (wild radish, Raphanus raphanistrum), […]), barley, winter (winter barley, Hordeum vulgare), and wheat, winter (winter wheat, Triticum aestivum) were planted into a silt loam soil and treated preemergence with test chemicals formulated in a non-phytotoxic solvent mixture which included a surfactant. At the same time, these species were planted in pots containing Sunshine Redi-Earth® planting medium comprising spaghnum peat moss, vermiculite, starter nutrients and dolomitic limestone and treated with postemergence applications of the test chemicals formulated in the same manner. Plants ranged in height from 2 to 18 cm (1- to 4-leaf stage). Treated plants and controls were maintained in a controlled growth environment for 14 to 21 d after which time all species were compared to controls and visually evaluated. […] A dash (-) response means no test result."}, "waterhemp": {"test_system": "waterhemp", "assay": "Test C preemergence", "format": "in vivo, Amaranthus rudis", "conditions": "for Waterhemp plant response rating (0 to 100): Preemergence, visual rating after 13 to 15 d", "description": "(§2) Seeds of plant species selected from blackgrass (Alopecurus myosuroides), ryegrass, Italian (Italian ryegrass, Lolium multiflorum), wheat (winter wheat, Triticum aestivum), galium (catchweed bedstraw, Galium aparine), corn (Zea mays), crabgrass, large (large crabgrass, Digitaria sanguinalis), foxtail, giant, (giant foxtail, Setaria faberii), johnsongrass (Sorghum halepense), lambsquarters (Chenopodium album), morningglory (Ipomoea coccinea), nutsedge, yellow (yellow nutsedge, Cyperus esculentus), pigweed (Amaranthus retroflexus), ragweed (common ragweed, Ambrosia elatior), soybean (Glycine max), barnyardgrass (Echinochloa crus-galli), oilseed rape (Brassica napus), waterhemp (common waterhemp, Amaranthus rudis), and velvetleaf (Abutilon theophrasti) were planted into a blend of loam soil and sand and treated preemergence with test chemicals formulated in a non-phytotoxic solvent mixture which included a surfactant. At the same time, plants selected from these crop and weed species and also chickweed (common chickweed, Stellaria media), oat, wild (wild oat, Avena fatua), and kochia (Kochia scoparia), were planted in pots containing Sunshine Redi-Earth® planting medium comprising spaghnum peat moss, vermiculite, starter nutrients and dolomitic limestone and treated with postemergence applications of test chemicals formulated in the same manner. Plants ranged in height from 2 to 18 cm (1- to 4-leaf stage) for postemergence treatments. […] A dash (-) response means no test result."}, "pigweed [1]": {"test_system": "pigweed", "assay": "Test C preemergence", "format": "in vivo, Amaranthus retroflexus", "conditions": "for Plant response rating (scale of 0 to 100 where 0 is no effect and 100 is complete control): Pigweed, preemergence; for Pigweed plant response rating (0 to 100): Preemergence, visual rating after 13 to 15 d", "description": "as §2"}, "kochia [2]": {"test_system": "kochia", "assay": "Test D preemergence", "format": "in vivo, Kochia scoparia", "conditions": "scale 0 to 100", "description": "as §1"}, "bromegrass, down": {"test_system": "bromegrass, down", "assay": "Test D postemergence", "format": "in vivo, Bromus tectorum", "conditions": "scale 0 to 100", "description": "as §1"}, "lambsquarters": {"test_system": "lambsquarters", "assay": "Test D preemergence", "format": "in vivo, Chenopodium album", "conditions": "scale 0 to 100", "description": "as §1"}, "windgrass [3]": {"test_system": "windgrass", "assay": "Test D preemergence", "format": "in vivo, Apera spica-venti", "conditions": "scale 0 to 100", "description": "as §1"}, "windgrass [4]": {"test_system": "windgrass", "assay": "Test D postemergence", "format": "in vivo, Apera spica-venti", "conditions": "scale 0 to 100", "description": "as §1"}, "pigweed [5]": {"test_system": "pigweed", "assay": "Test D preemergence", "format": "in vivo, Amaranthus retroflexus", "conditions": "scale 0 to 100", "description": "as §1"}, "speedwell": {"test_system": "speedwell", "assay": "Test D preemergence", "format": "in vivo, Veronica persica", "conditions": "scale 0 to 100", "description": "as §1"}, "field violet": {"test_system": "field violet", "assay": "Test D preemergence", "format": "in vivo, Viola arvensis", "conditions": "scale 0 to 100", "description": "as §1"}, "kochia [6]": {"test_system": "kochia", "assay": "Test D postemergence", "format": "in vivo, Kochia scoparia", "conditions": "scale 0 to 100", "description": "as §1"}}}
{"smiles": "CCCOc1nc(-c2ccccc2)nn1Cc1ccnc(C(F)(F)F)c1", "note": "[Compound 33]", "values": [{"measurement": "Plant response rating, Blackgrass", "setting": "blackgrass; 125 g ai/ha", "result": 30}, {"measurement": "Plant response rating, Blackgrass", "setting": "blackgrass; 500 g ai/ha", "result": 50}]}
{"smiles": "CCOc1nc(-c2ccc(F)cc2)nn1Cc1ccnc(C(F)(F)F)c1", "note": "[Compound 8, 4-[[5-ethoxy-3-(4-fluorophenyl)-1H-1,2,4-triazol-1-yl]methyl]-2-(trifluoromethyl)pyridine]", "values": [{"measurement": "Plant response rating: Oat, Wild", "setting": "oat, wild; 62 g ai/ha", "result": 40}, {"measurement": "Plant response rating: Oat, Wild", "setting": "oat, wild; 125 g ai/ha", "result": 70}, {"measurement": "Plant response rating: Oat, Wild", "setting": "oat, wild; 250 g ai/ha", "result": 80}, {"measurement": "Waterhemp plant response rating (0 to 100)", "setting": "waterhemp; 31 g ai/ha", "result": 98}, {"measurement": "Waterhemp plant response rating (0 to 100)", "setting": "waterhemp; 62 g ai/ha", "result": 100}, {"measurement": "Plant response rating (scale of 0 to 100 where 0 is no effect and 100 is complete control)", "setting": "waterhemp; Waterhemp, preemergence, 250 g ai/ha", "result": 100}, {"measurement": "Plant response rating (scale of 0 to 100 where 0 is no effect and 100 is complete control)", "setting": "pigweed [1]; 125 g ai/ha", "result": 100}, {"measurement": "Plant response rating (scale of 0 to 100 where 0 is no effect and 100 is complete control)", "setting": "pigweed [1]; 250 g ai/ha", "result": 100}, {"measurement": "Pigweed plant response rating (0 to 100)", "setting": "pigweed [1]; 31 g ai/ha", "result": 100}, {"measurement": "Pigweed plant response rating (0 to 100)", "setting": "pigweed [1]; 62 g ai/ha", "result": 100}, {"measurement": "Plant response rating: Kochia", "setting": "kochia [2]; 62 g ai/ha", "result": 100}, {"measurement": "Plant response rating: Kochia", "setting": "kochia [2]; 125 g ai/ha", "result": 100}, {"measurement": "Plant response rating: Kochia", "setting": "kochia [2]; 250 g ai/ha", "result": 100}, {"measurement": "Plant response rating: Bromegrass, Down", "setting": "bromegrass, down; 31 g ai/ha", "result": 35}, {"measurement": "Plant response rating: Bromegrass, Down", "setting": "bromegrass, down; 62 g ai/ha", "result": 45}, {"measurement": "Plant response rating: Bromegrass, Down", "setting": "bromegrass, down; 125 g ai/ha", "result": 55}, {"measurement": "Plant response rating: Bromegrass, Down", "setting": "bromegrass, down; 250 g ai/ha", "result": 60}, {"measurement": "Plant response rating: Lambsquarters", "setting": "lambsquarters; 62 g ai/ha", "result": 100}, {"measurement": "Plant response rating: Lambsquarters", "setting": "lambsquarters; 125 g ai/ha", "result": 100}, {"measurement": "Plant response rating: Lambsquarters", "setting": "lambsquarters; 250 g ai/ha", "result": 100}, {"measurement": "Plant response rating: Windgrass", "setting": "windgrass [3]; 62 g ai/ha", "result": 90}, {"measurement": "Plant response rating: Windgrass", "setting": "windgrass [3]; 125 g ai/ha", "result": 100}, {"measurement": "Plant response rating: Windgrass", "setting": "windgrass [3]; 250 g ai/ha", "result": 100}, {"measurement": "Plant response rating: Windgrass", "setting": "windgrass [4]; 31 g ai/ha", "result": 40}, {"measurement": "Plant response rating: Windgrass", "setting": "windgrass [4]; 62 g ai/ha", "result": 60}, {"measurement": "Plant response rating: Windgrass", "setting": "windgrass [4]; 125 g ai/ha", "result": 75}, {"measurement": "Plant response rating: Windgrass", "setting": "windgrass [4]; 250 g ai/ha", "result": 85}, {"measurement": "Plant response rating: Pigweed", "setting": "pigweed [5]; 62 g ai/ha", "result": 100}, {"measurement": "Plant response rating: Pigweed", "setting": "pigweed [5]; 125 g ai/ha", "result": 100}, {"measurement": "Plant response rating: Pigweed", "setting": "pigweed [5]; 250 g ai/ha", "result": 100}, {"measurement": "Plant response rating: Speedwell", "setting": "speedwell; 62 g ai/ha", "result": 100}, {"measurement": "Plant response rating: Speedwell", "setting": "speedwell; 125 g ai/ha", "result": 100}, {"measurement": "Plant response rating: Speedwell", "setting": "speedwell; 250 g ai/ha", "result": 100}, {"measurement": "Plant response rating: Field Violet", "setting": "field violet; 62 g ai/ha", "result": 100}, {"measurement": "Plant response rating: Field Violet", "setting": "field violet; 125 g ai/ha", "result": 100}, {"measurement": "Plant response rating: Field Violet", "setting": "field violet; 250 g ai/ha", "result": 100}, {"measurement": "Plant response rating: Kochia", "setting": "kochia [6]; 31 g ai/ha", "result": 75}, {"measurement": "Plant response rating: Kochia", "setting": "kochia [6]; 62 g ai/ha", "result": 80}, {"measurement": "Plant response rating: Kochia", "setting": "kochia [6]; 125 g ai/ha", "result": 85}, {"measurement": "Plant response rating: Kochia", "setting": "kochia [6]; 250 g ai/ha", "result": 80}]}
{"smiles": "CCOc1nc(-c2ccc(Cl)cc2)nn1Cc1ccnc(C(F)(F)F)c1", "note": "[Compound 26]", "values": [{"measurement": "Plant response rating, Blackgrass", "setting": "blackgrass; 31 g ai/ha", "result": 30}, {"measurement": "Plant response rating, Blackgrass", "setting": "blackgrass; 125 g ai/ha", "result": 50}]}
{"smiles": "CCCc1nc(-c2ccc(F)cc2)nn1Cc1ccnc(C(F)(F)F)c1", "note": "[Compound 6, 4-[[3-(4-fluorophenyl)-5-propyl-1H-1,2,4-triazol-1-yl]methyl]-2-(trifluoromethyl)pyridine]", "values": [{"measurement": "Plant response rating (scale of 0 to 100 where 0 is no effect and 100 is complete control)", "setting": "pigweed [1]; 125 g ai/ha", "result": 100}, {"measurement": "Plant response rating (scale of 0 to 100 where 0 is no effect and 100 is complete control)", "setting": "pigweed [1]; 250 g ai/ha", "result": 100}, {"measurement": "Pigweed plant response rating (0 to 100)", "setting": "pigweed [1]; 31 g ai/ha", "result": 100}, {"measurement": "Pigweed plant response rating (0 to 100)", "setting": "pigweed [1]; 62 g ai/ha", "result": 100}]}
